The source of these data is US8722376B2, “Firefly luciferase” (Olympus Corporation, priority 2011, dated 2014).

The structures appear in SMILES notation.

The assay deals with T1, GL3 (luciferase derived from a known firefly) (Photinus pyralis, UniProt P08659, K549A/L550V/N119G/N50D/S548I).
T1 construct: measured as purified protein in a similar manner to SP1
The assay can be described thus: Km of GL3 luciferase (luminescence kinetic analysis). As to conditions: read-out: Km for ATP; 0.1 M Tris-HCl (pH 8.0), D-luciferin, MgSO4; measured in a similar manner. The assay is classed as biochemical.

T1 sequence (P08659 whole entry N50D/N119G/S548I/K549A/L550V): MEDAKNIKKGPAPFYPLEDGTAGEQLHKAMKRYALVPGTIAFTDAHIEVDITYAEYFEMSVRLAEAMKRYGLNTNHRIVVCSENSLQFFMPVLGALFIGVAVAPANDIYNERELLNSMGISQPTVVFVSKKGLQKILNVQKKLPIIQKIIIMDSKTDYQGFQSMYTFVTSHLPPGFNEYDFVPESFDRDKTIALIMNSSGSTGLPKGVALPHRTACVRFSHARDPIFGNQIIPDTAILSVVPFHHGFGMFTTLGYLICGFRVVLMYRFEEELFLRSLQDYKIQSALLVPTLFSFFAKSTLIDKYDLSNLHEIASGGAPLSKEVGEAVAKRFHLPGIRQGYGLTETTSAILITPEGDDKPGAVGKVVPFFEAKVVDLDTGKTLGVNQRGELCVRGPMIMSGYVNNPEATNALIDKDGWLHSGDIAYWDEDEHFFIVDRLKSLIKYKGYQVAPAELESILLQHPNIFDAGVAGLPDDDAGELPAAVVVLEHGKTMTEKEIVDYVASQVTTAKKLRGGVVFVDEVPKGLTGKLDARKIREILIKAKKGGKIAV

For `Nc1ncnc2c1ncn2[C@@H]1O[C@H](COP(=O)(O)OP(=O)(O)OP(=O)(O)O)[C@@H](O)[C@H]1O` [ATP], the Km was 71.3 µM.
